Measurements reported in US20190240187A1, “ORAL PREPARATIONS WITH OMEPRAZOLE OR PANTOPRAZOLE” (SYMRISE AG, priority 2015, published 2019).

Experiment: Bitter masking test: aqueous omeprazole solutions tasted by a panel in duo comparison tests
Format: in vivo
Details: 500 ppm omeprazole; for Masking effect on the bitterness of omeprazole (in words): 100 ppm additive
Text: To test the bitter masking effect, aqueous solutions, each containing 500 ppm omeprazole
(V1) alone or together (1) with 100 ppm eriodyctiol (ED) or (2) with 100 ppm homoeriodyctiol sodium salt (HE) or (3) with 100 ppm eriodyctiol+100 ppm homoeriodyctiol sodium salt or (V4) with 100 ppm 4′-fluoro-6-methoxyflavanone as a reference substance that has no masking effect, were tasted. Solutions 2-5 were each tasted by an experienced panel of 20-30 testers in a randomized order against solution 1 in duo comparison tests and the bitterness of each sample was estimated on a scale of 0 to 100.

SMILES | Bitterness (mean panel estimate (20-30 testers) on a scale of 0 to 100, aqueous solution, additives 100 ppm each) | Masking effect on the bitterness of omeprazole (in words)
COc1ccc2[nH]c([S+]([O-])Cc3ncc(C)c(OC)c3C)nc2c1 (racemic) [Example V1, (RS)-5-methoxy-2-[(4-methoxy-3,5-dimethylpyridin-2-yl)methanesulfinyl]-1H-benzoinnidazole, reference compound] | 80 | –
O=C1CC(c2ccc(O)c(O)c2)Oc2cc(O)cc(O)c21 (stereo not drawn) [ED, 2-(3,4-dihydroxyphenyl)-5,7-dihydroxy-4-chronnanone] | – | act on their own as masking agents
COc1cc(C2CC(=O)c3c(O)cc(O)cc3O2)ccc1O (stereo not drawn) [HE, 5-7-dihydroxy-2-(4-hydroxy-3-methoxyphenyl)-4-chronnanone] | – | act on their own as masking agents
